Assay results as given in ChEMBL document CHEMBL1201862, “PubChem BioAssay data set” (2004).
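Interpolation was linear, between the two tested concentrations surrounding the appropriate level; five concentrations were tested over 48 hours in 96-well plates. Abbreviation: GI50, concentration required for 50% inhibition of growth.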 Calls of active or inactive are those of the source. Rule as the data show it: active = GI50 up to about 1.1 µM and inactive = higher. Peptide text beside a SMILES is read from it. * marks the point of attachment. Boc = CC(C)(C)OC(=O)*; OtBu = CC(C)(C)O*

Tests used:
Test in all cases: growth of human tumour cells (NCI), 48 h
ACHN = system: ACHN
SK-MEL-28 = system: SK-MEL-28
TK-10 = system: TK-10
RXF 393 = system: RXF 393
MDA-MB-231 = system: MDA-MB-231
HOP-62 = system: HOP-62
SW-620 = system: SW-620
UACC-62 = system: UACC-62
Malme-3M = system: Malme-3M
UACC-257 = system: UACC-257
A549 = system: A549
T47D = system: T47D
U-251 = system: U-251
NCI-H23 = system: NCI-H23
HCT-116 = system: HCT-116
BT-549 = system: BT-549
786-0 = system: 786-0
HCC 2998 = system: HCC 2998
SNB-75 = system: SNB-75
A498 = system: A498
SF-268 = system: SF-268
SK-OV-3 = system: SK-OV-3
Hs-578T = system: Hs-578T
MDA-MB-435 = system: MDA-MB-435
NCI-H226 = system: NCI-H226
UO-31 = system: UO-31
CAKI-1 = system: CAKI-1
OVCAR-8 = system: OVCAR-8
HCT-15 = system: HCT-15
RPMI-8226 = system: RPMI-8226
SK-MEL-2 = system: SK-MEL-2
NCI-H460 = system: NCI-H460
DU-145 = system: DU-145
OVCAR-5 = system: OVCAR-5
MDA-N = system: MDA-N
SF-295 = system: SF-295
OVCAR-4 = system: OVCAR-4
HT-29 = system: HT-29
KM12 = system: KM12
M14 = system: M14
SNB-19 = system: SNB-19
MCF7 = system: MCF7
COLO 205 = system: COLO 205
OVCAR-3 = system: OVCAR-3
LOX IMVI = system: LOX IMVI
MOLT-4 = system: MOLT-4
K562 = system: K562
SF-539 = system: SF-539
PC-3 = system: PC-3
IGROV-1 = system: IGROV-1
HOP-92 = system: HOP-92
NCI/ADR-RES = system: NCI/ADR-RES
SN12C = system: SN12C
EKVX = system: EKVX
NCI-H522 = system: NCI-H522
SK-MEL-5 = system: SK-MEL-5
HL-60 = system: HL-60
SR = system: SR
CCRF-CEM = system: CCRF-CEM

In the case of `CCCCSC1=N/C(=C\c2ccc(N(C)C)cc2)C(Cl)=N1`, the GI50 (ACHN) is reported as > 100 µM (inactive), the GI50 (SK-MEL-28) is reported as > 100 µM (inactive) and the GI50 (TK-10) is reported as > 100 µM (inactive). For the same molecule, the GI50 (RXF 393) was > 100 µM (inactive), the GI50 (MDA-MB-231) was > 100 µM (inactive) and the GI50 (HOP-62) was > 100 µM (inactive). For the same molecule, the GI50 (SW-620) was > 100 µM (inactive), the GI50 (UACC-62) was 94.4 µM (inactive) and the GI50 (Malme-3M) was > 100 µM (inactive). For the same molecule, the GI50 (UACC-257) was > 100 µM (inactive), the GI50 (A549) was > 100 µM (inactive) and the GI50 (T47D) was > 100 µM (inactive). The GI50 (U-251) was > 100 µM (inactive), the GI50 (NCI-H23) was > 100 µM (inactive) and the GI50 (HCT-116) was > 100 µM (inactive). For the same molecule, the GI50 (BT-549) was > 100 µM (inactive), the GI50 (786-0) was > 100 µM (inactive) and the GI50 (HCC 2998) was > 100 µM (inactive). For the same molecule, the GI50 (SNB-75) was > 100 µM (inactive), the GI50 (A498) was 78.2 µM (inactive) and the GI50 (SF-268) was > 100 µM (inactive). The GI50 (SK-OV-3) was > 100 µM (inactive), the GI50 (Hs-578T) was > 100 µM (inactive) and the GI50 (MDA-MB-435) was > 100 µM (inactive). The GI50 (NCI-H226) was > 100 µM (inactive), the GI50 (UO-31) was > 100 µM (inactive) and the GI50 (CAKI-1) was > 100 µM (inactive). The GI50 (OVCAR-8) was > 100 µM (inactive), the GI50 (HCT-15) was > 100 µM and the GI50 (RPMI-8226) was > 100 µM (inactive). For the same molecule, the GI50 (SK-MEL-2) was > 100 µM (inactive), the GI50 (NCI-H460) was > 100 µM (inactive) and the GI50 (DU-145) was > 100 µM (inactive). The GI50 (OVCAR-5) was > 100 µM (inactive), the GI50 (MDA-N) was > 100 µM (inactive) and the GI50 (SF-295) was > 100 µM (inactive). For the same molecule, the GI50 (OVCAR-4) was > 100 µM (inactive), the GI50 (HT-29) was > 100 µM (inactive) and the GI50 (KM12) was > 100 µM (inactive). The GI50 (M14) was > 100 µM (inactive), the GI50 (SNB-19) was > 100 µM (inactive) and the GI50 (MCF7) was > 100 µM (inactive). For the same molecule, the GI50 (COLO 205) was > 100 µM (inactive), the GI50 (OVCAR-3) was > 100 µM (inactive) and the GI50 (LOX IMVI) was > 100 µM (inactive). For the same molecule, the GI50 (MOLT-4) was > 100 µM (inactive), the GI50 (K562) was > 100 µM (inactive) and the GI50 (SF-539) was > 100 µM (inactive). The GI50 (PC-3) was 76.6 µM (inactive), the GI50 (IGROV-1) was > 100 µM (inactive) and the GI50 (HOP-92) was > 100 µM (inactive). The GI50 (NCI/ADR-RES) was > 100 µM (inactive), the GI50 (SN12C) was > 100 µM (inactive) and the GI50 (EKVX) was 89.5 µM (inactive). The GI50 (NCI-H522) was > 100 µM (inactive).
`CN(C)CCCNC(=O)c1cc(NC(=O)c2cc(NC(=O)c3cc(NC(=O)CCCn4ccc(CO)c4CO)cn3C)cn2C)cn1C` was tested, and the GI50 (ACHN) was 15.8 µM (inactive), the GI50 (SK-MEL-28) was 11.4 µM (inactive) and the GI50 (TK-10) was 24.8 µM (inactive). The GI50 (RXF 393) was 1.85 µM (inactive), the GI50 (MDA-MB-231) was 27.7 µM (inactive) and the GI50 (SW-620) was 20.6 µM (inactive). For the same molecule, the GI50 (UACC-62) was 3.48 µM (inactive), the GI50 (Malme-3M) was 14.5 µM (inactive) and the GI50 (A549) was 14.5 µM (inactive). For the same molecule, the GI50 (T47D) was 6.85 µM (inactive), the GI50 (SK-MEL-5) was 2.71 µM (inactive) and the GI50 (U-251) was 2.77 µM (inactive). The GI50 (NCI-H23) was 13.8 µM (inactive), the GI50 (HCT-116) was 3.86 µM (inactive) and the GI50 (BT-549) was 2.64 µM (inactive). The GI50 (786-0) was 4.2 µM (inactive), the GI50 (HCC 2998) was 63.5 µM (inactive) and the GI50 (SNB-75) was 5.01 µM (inactive). The GI50 (SF-268) was 3.83 µM (inactive), the GI50 (HL-60) was 3.1 µM (inactive) and the GI50 (SK-OV-3) was 1.06 µM (active). The GI50 (Hs-578T) was 22.1 µM (inactive), the GI50 (MDA-MB-435) was 11.1 µM (inactive) and the GI50 (NCI-H226) was 2.97 µM (inactive). For the same molecule, the GI50 (UO-31) was > 100 µM (inactive), the GI50 (CAKI-1) was > 100 µM (inactive) and the GI50 (HCT-15) was > 100 µM. The GI50 (SK-MEL-2) was 25.6 µM (inactive), the GI50 (NCI-H460) was 12.5 µM (inactive) and the GI50 (DU-145) was 3.94 µM (inactive). The GI50 (OVCAR-5) was 3.99 µM (inactive), the GI50 (MDA-N) was 16.5 µM (inactive) and the GI50 (OVCAR-4) was 19.5 µM (inactive). The GI50 (SR) was 6.5 µM (inactive), the GI50 (KM12) was > 100 µM (inactive) and the GI50 (SNB-19) was 2.9 µM (inactive). For the same molecule, the GI50 (MCF7) was 3.27 µM (inactive), the GI50 (COLO 205) was 11.2 µM (inactive) and the GI50 (OVCAR-3) was 10.9 µM (inactive). For the same molecule, the GI50 (LOX IMVI) was 4.28 µM (inactive), the GI50 (MOLT-4) was 4.74 µM (inactive) and the GI50 (K562) was 3.78 µM (inactive). For the same molecule, the GI50 (SF-539) was 3.44 µM (inactive), the GI50 (CCRF-CEM) was 3.73 µM (inactive) and the GI50 (PC-3) was 12.2 µM (inactive). The GI50 (IGROV-1) was 3.2 µM (inactive), the GI50 (HOP-92) was 13 µM (inactive) and the GI50 (NCI/ADR-RES) was > 100 µM (inactive). For the same molecule, the GI50 (SN12C) was 6.18 µM (inactive), the GI50 (EKVX) was 72.4 µM (inactive) and the GI50 (NCI-H522) was 2.37 µM (inactive).
`CC(C)(C)OC(=O)CC(NC(=O)OC(C)(C)C)C(=O)NC(Cc1ccccc1)C(N)=O` (stereo not given) (Boc-Asp(OtBu)-Phe-NH2; configuration not given here) was tested, and the GI50 (ACHN) was > 100 µM (inactive), the GI50 (SK-MEL-28) was > 100 µM (inactive) and the GI50 (TK-10) was > 100 µM (inactive). For the same molecule, the GI50 (RXF 393) was > 100 µM (inactive), the GI50 (MDA-MB-231) was > 100 µM (inactive) and the GI50 (HOP-62) was > 100 µM (inactive). The GI50 (SW-620) was > 100 µM (inactive), the GI50 (Malme-3M) was > 100 µM (inactive) and the GI50 (UACC-257) was > 100 µM (inactive). For the same molecule, the GI50 (A549) was > 100 µM (inactive), the GI50 (T47D) was > 100 µM (inactive) and the GI50 (SK-MEL-5) was > 100 µM (inactive). The GI50 (U-251) was > 100 µM (inactive), the GI50 (NCI-H23) was > 100 µM (inactive) and the GI50 (HCT-116) was > 100 µM (inactive). For the same molecule, the GI50 (BT-549) was > 100 µM (inactive), the GI50 (786-0) was > 100 µM (inactive) and the GI50 (SNB-75) was > 100 µM (inactive). The GI50 (A498) was > 100 µM (inactive), the GI50 (SF-268) was > 100 µM (inactive) and the GI50 (SK-OV-3) was > 100 µM (inactive). For the same molecule, the GI50 (Hs-578T) was > 100 µM (inactive), the GI50 (MDA-MB-435) was > 100 µM (inactive) and the GI50 (NCI-H226) was > 100 µM (inactive). The GI50 (UO-31) was > 100 µM (inactive), the GI50 (CAKI-1) was > 100 µM (inactive) and the GI50 (OVCAR-8) was > 100 µM (inactive). For the same molecule, the GI50 (HCT-15) was > 100 µM, the GI50 (RPMI-8226) was > 100 µM (inactive) and the GI50 (SK-MEL-2) was > 100 µM (inactive). For the same molecule, the GI50 (NCI-H460) was > 100 µM (inactive), the GI50 (DU-145) was > 100 µM (inactive) and the GI50 (OVCAR-5) was > 100 µM (inactive). For the same molecule, the GI50 (MDA-N) was > 100 µM (inactive), the GI50 (SF-295) was > 100 µM (inactive) and the GI50 (OVCAR-4) was > 100 µM (inactive). The GI50 (HT-29) was > 100 µM (inactive), the GI50 (KM12) was > 100 µM (inactive) and the GI50 (M14) was > 100 µM (inactive). The GI50 (SNB-19) was > 100 µM (inactive), the GI50 (MCF7) was > 100 µM (inactive) and the GI50 (COLO 205) was > 100 µM (inactive). The GI50 (OVCAR-3) was > 100 µM (inactive), the GI50 (LOX IMVI) was > 100 µM (inactive) and the GI50 (K562) was > 100 µM (inactive). For the same molecule, the GI50 (SF-539) was > 100 µM (inactive), the GI50 (CCRF-CEM) was > 100 µM (inactive) and the GI50 (PC-3) was > 100 µM (inactive). The GI50 (IGROV-1) was > 100 µM (inactive), the GI50 (HOP-92) was 19.8 µM (inactive) and the GI50 (NCI/ADR-RES) was > 100 µM (inactive). For the same molecule, the GI50 (SN12C) was > 100 µM (inactive), the GI50 (EKVX) was > 100 µM (inactive) and the GI50 (NCI-H522) was > 100 µM (inactive).
